According to EP0414391B1, “Aminoketone derivatives and use thereof” (MITSUI TOATSU CHEMICALS, Inc., priority 1989, dated 1991):
Where a name gives a salt, the structure may show the parent alone. Read-outs that look alike come from different tables or passages of the source.

What was measured:
[1] = tested on: contraction of the bladder caused by a micturition reflex; experiment: Micturition reflex depression action (bladder balloon, internal pressure); format: in vivo, Wistar male rats; conditions: injected through the common carotid vein, urethane-anesthetized rats, Mean ± S.E., 3 rats
Excerpt: Wistar male rats having a body weight of 300 g were each anesthetized s.c. with 1.5 g/kg of urethane and fixed in the supine position. The hypogastrium was next subjected to median incision so that the bladder was exposed. A short cut was formed in a top part of the bladder, through which a balloon having an internal volume of about 1 mℓ was inserted. A catheter equipped with a three-way cock was connected to the balloon. A syringe was connected to another flow passage of the three-way cock, while a transducer ("Statham P-50", trade name) was connected to the remaining flow passage to permit the measurement of the internal pressure of the bladder.
After the rat was left over for at least 30 minutes after the operation, 0.25-0.5 mℓ of distilled water was injected into the balloon by means of the syringe. Variations in the internal pressure of the bladder, which were developed at that time due to spontaneous movement of the bladder, were recorded on a polygraph ("RM-6000", trade name; manufactured by Nihon Koden K.K.) by way of the transducer.
Each test compound was dissolved in physiological saline and injected through the common carotid vein. Effects of each test compound was expressed in terms of the time required until the disappearance of a contraction of the bladder caused by a micturition reflex.

[2] = Central depressant action (spontaneous behavior, revolutionary wheel); set-up: species or system ddy Male mice; conditions: mouse, in vivo, ip; intraperitoneal administration; dose reducing the number of wheel revolutions in 20 minutes by 50%; read-out: Central depressant action ED₅₀
Description: Depressant action against spontaneous behavior using a revolutionary wheel was used as an index for central depressant action.
ddy Male mice (body weights: 25-30 g) were used. After intraperitoneal administration of each test compound, the mouse was immediately placed in a revolutionary wheel. The total number of revolutions of the wheel during a 20 minute period immediately after the placement of the mouse inside the wheel was counted.
Doses required to reduce the number of revolutions by 50%, ED₅₀ (mg/kg) were determined.

[3] = tested on: Tonic extension of the hind limbs; experiment: Antiepileptic action (pentetrazole-induced tonic extension of the hind limbs); format: in vivo, ddy Male mice; conditions: Mus musculus, ip, 0.5 h, read-out: Antiepileptic action ED₅₀
Description: ddy Male mice (body weights: 25-30 g) were used. Test compounds were intraperitoneally administered. Thirty minutes later, pentetrazole (PTZ) was intraperitoneally administered at 170 mg/kg.
Tonic extension of the hind limbs was observed. [formula]
Effective dose for 50% of antiepileptic action, ED₅₀ (mg/kg) was calculated.

Acute toxicity = conditions: mouse, in vivo, ip; intraperitoneally administered; alive or dead observed one day later; read-out: LD₅₀
Description: ddy Male mice (body weights: 25-30 g) were used. Each test compound was intraperitoneally administered. One day later, the mice were observed whether they were alive or dead.
50% lethal doses, LD₅₀ (mg/kg) were calculated.

[4] = tested on: decerebrate rigidity induced by radio frequency lesions of rat brains; experiment: Decerebrate rigidity remission action (radio frequency lesion, method of Ono et al); format: in vivo, Wistar male rat; conditions: iv, intravenously administered at 3 mg/kg, tension before the administration = 100%
Description: Using the method proposed by Ono et al [H. Ono et al, Gen. Pharmacol., 18, 57 (1987)], rigidity remission action of the aminoketone derivatives of the invention for the decerebrate rigidity induced by radio frequency lesions of rat brains was investigated.
Each Wistar male rat (body weight: 300-400 g) was anesthetized with ether and then fixed on a stereotaxic apparatus. In accordance with the Pellegrino's stereo-taxic brain atlas, the electrodes of a lesion generator (manufactured by Radionics Company) were punctuated to AP: 0, L:±1.5, V:-3. […] The rigidified rat was fixed in the abdominal position and one of the hind legs was pushed 4-5 mm toward the head repeatedly once a minute. The tension of each extension reflex of the extensor of the hind limbs was recorded. Assuming that the tension before the administration be 100%, the rate of rigidity inhibition as expressed in terms of percentage: [formula]
(§1) The test compounds were intravenously administered at 3 mg/kg.

[5] = tested on: flexor reflex of the right anterior tibialis; experiment: Depressing action for the spinal reflex of cat (flexor reflex); format: in vivo, cats; conditions: Felis catus, iv, read-out: Reflex inhibition, %
Description: Both male and female cats having a body weight of 2.5-4.0 kg were anesthetized with ether and then fixed in the supine position. In accordance with the method proposed by Shimamoto et al ["Yakurigaku Jisshu (Pharmacological Practice)", Nanzando Co., Ltd. (1960)], profound peroneal nerve-anterior peroneal nerve samples were prepared for the testing of flexor reflex. The flexor reflex of the right anterior tibialis was elicited by electrical stimulation (0.2 Hz, 1 ms, supra maximal voltage) of the central end of the ipsilateral femoral nerve. Under a static tension of 25 g, contractions of the corresponding anterior peroneal nerve were recorded on a polygraph. Assuming that the contraction force before the administration be 100%, the rate of flexor reflex inhibition was expressed in terms of percentage: [formula]
as §1

[6] = intraperitoneally administered 30 minutes before pentetrazole (PTZ) 170 mg/kg i.p.
[7] = intravenously administered at 3 mg/kg, contraction force before the administration = 100%

Compound	ED50 at 20 min [2]	ED50 [3, 6]	LD50 at 24 h (Acute toxicity)	inhibition in vivo at 3 mg/kg [4]	inhibition in vivo at 3 mg/kg [5, 7]	also measured
CCc1ccc(C(=O)C(C)CN2CCCCC2)cc1 (centres unmarked) [Eperisone hydrochloride, eperisone hydrochloride, reference compound]	33 mg/kg	30 mg/kg	100 to 170 mg/kg	52%	50%	Time required until disappearance ([1]; Dose 2 mg/kg): 2.4 ± 1.2 min; Time required until disappearance ([1]; Dose 4 mg/kg): 5.8 ± 2.1 min
CC(CN1CCCCC1)C(=O)c1cc(-c2ccccc2)no1.Cl (centres unmarked) [Example 1, 5-(2-methyl-3-piperidinopropionyl)-3-phenylisoxazole Hydrochloride]	54 mg/kg	17 mg/kg	170 to 300 mg/kg	40%	–	–
CC(CN1CCCC1)C(=O)c1cc(-c2ccccc2)no1 (centres unmarked) [Example 5]	44 mg/kg	20 mg/kg	100 to 170 mg/kg	40%	–	–
COc1cccc(-c2cc(C(=O)C(C)CN3CCCC3)on2)c1 (centres unmarked) [Example 8]	–	–	–	38%	–	–
Cc1ccc(-c2cc(C(=O)C(C)CN3CCCC3)on2)o1 (centres unmarked) [Example 20, hydrochloride]	49 mg/kg	–	170 to 300 mg/kg	49%	54%	–
CC(CN1CCCCC1)C(=O)c1cc(Cc2ccccc2)no1.Cl (centres unmarked) [Example 21, 3-Benzyl-5-(2-methyl-3-piperidinopropionyl)isoxazole hydrochloride]	52 mg/kg	–	–	44%	–	–
CC(CN1CCCCC1)C(=O)c1cc(C(=O)c2ccccc2)no1.Cl (centres unmarked) [Example 22, 3-benzoyl-5-(2-methyl-3-piperidinopropionyl)isoxazole hydrochloride]	43 mg/kg	18 mg/kg	–	41%	–	–
CCC(CN1CCCC1)C(=O)c1cc(-c2ccccc2)no1 (centres unmarked) [Example 28, 3-Phenyl-5-{2-(1-pyrrolidinylmethyl)butyryl} isoxazole hydrochloride]	44 mg/kg	5 mg/kg	100 to 170 mg/kg	62%	79%	Time required until disappearance ([1]; Dose 2 mg/kg): 5.6 ± 1.2 min; Time required until disappearance ([1]; Dose 4 mg/kg): 10.1 ± 2.1 min
CCC(CN1CCCCC1)C(=O)c1cc(-c2ccccc2)no1 (centres unmarked) [Example 29]	38 mg/kg	3 mg/kg	300 to 500 mg/kg	53%	70%	Time required until disappearance ([1]; Dose 2 mg/kg): 4.9 ± 1.2 min; Time required until disappearance ([1]; Dose 4 mg/kg): 8.6 ± 2.1 min
CCC(CN1CCCC1)C(=O)c1cc(-c2ccc(C)o2)no1 (centres unmarked) [Example 38]	–	–	–	–	38%	–
CC(C)C(CN1CCCC1)C(=O)c1cc(-c2ccccc2)no1 (centres unmarked) [Example 46, 3-Phenyl-5-{2-(1-pyrrolidinylmethyl)-3-methylbutyryl}-isoxazole hydrochloride]	–	–	–	51%	66%	–
CCCC(CN1CCCC1)C(=O)c1cc(-c2ccccc2)no1 (centres unmarked) [Example 47]	–	–	–	–	–	inhibition in vivo at 3 mg/kg [5]: 45%
CCC(CN1CCCC1)C(=O)c1cc(-c2ccccc2)on1 (centres unmarked) [Example 52]	–	–	–	61%	–	–
CCC(CN1CCCC1)C(=O)c1noc2ccccc12 (centres unmarked) [Example 58, 3-{2-(1-pyrrolidinylmethyl)butyryl} -1,2-benzisoxazole hydrochloride]	–	–	–	–	–	inhibition in vivo at 3 mg/kg [5]: 45%
CC(CN1CCCC1)C(=O)c1snc2ccccc12 (centres unmarked) [Example 61]	37 mg/kg	11 mg/kg	–	–	85%	–
CCC(CN1CCCC1)C(=O)c1snc2ccccc12 (centres unmarked) [Example 62]	50 mg/kg	–	–	–	–	ED50 [3]: 23 mg/kg; inhibition in vivo at 3 mg/kg [5]: 90%
Cc1onc(-c2ccccc2)c1C(=O)C(C)CN1CCCCC1.Cl (centres unmarked) [Example 68, 3-Phenyl-5-methyl-4-(2-methyl-3-piperidinopropionyl)isoxazole hydrochloride]	–	17 mg/kg	–	–	56%	–
